Tested on: MV-4-11 cells
Test: Gene expression microarray analysis (Affymetrix PrimeView) and GSEA
Type: cell-based, human
Set-up: RFU PODN (11730768_x_at) / Fold change /veh PODN (11730768_x_at) / RFU LINC00158 (11744669_a_at) / Fold change /veh LINC00158 (11744669_a_at) / RFU DUSP10 (11751237_a_at) / Fold change /veh DUSP10 (11751237_a_at) / RFU ID3 (11757404_x_at) / Fold change /veh ID3 (11757404_x_at) / RFU PLEKHG5 (11737974_s_at) / Fold change /veh PLEKHG5 (11737974_s_at) / RFU LRRC4B (11730491_at) / Fold change /veh LRRC4B (11730491_at) / RFU GIMAP4 (11747438_a_at) / Fold change /veh GIMAP4 (11747438_a_at) / RFU KRT8 (11758183_x_at) / Fold change /veh KRT8 (11758183_x_at) / RFU CNN1 (11734310_a_at) / Fold change /veh CNN1 (11734310_a_at) / RFU VPS37D (11726825_at) / Fold change /veh VPS37D (11726825_at) / RFU C10orf10 (11716522_x_at) / Fold change /veh C10orf10 (11716522_x_at) / RFU KIR2DL2 /// KIR2DL4 /// KIR2DL5A /// KIR2DL5B /// KIR2DS1 /// KIR2DS2 /// KIR2DS3 /// KIR2DS4 /// KIR3DL3 /// KIR3DL3 /// KIR3DS1 (11738374_at) / Fold change /veh KIR2DL2 /// KIR2DL4 /// KIR2DL5A /// KIR2DL5B /// KIR2DS1 /// KIR2DS2 /// KIR2DS3 /// KIR2DS4 /// KIR3DL3 /// KIR3DL3 /// KIR3DS1 (11738374_at) / RFU C1QL1 (11718748_at) / Fold change /veh C1QL1 (11718748_at) / RFU TMPRSS4 (11747572_a_at) / Fold change /veh TMPRSS4 (11747572_a_at) / RFU HAMP (11756126_x_at) / Fold change /veh HAMP (11756126_x_at) / RFU RNFT2 (11725882_a_at) / Fold change /veh RNFT2 (11725882_a_at) / RFU NR4A2 (11747474_a_at) / Fold change /veh NR4A2 (11747474_a_at) / RFU ABCC12 (11746883_a_at) / Fold change /veh ABCC12 (11746883_a_at) / RFU TMEM136 (11760407_x_at) / Fold change /veh TMEM136 (11760407_x_at) / RFU CLDN22 /// WWC2 (11732394_at) / Fold change /veh CLDN22 /// WWC2 (11732394_at) / RFU HLA-DPB1 (11760878_x_at) / Fold change /veh HLA-DPB1 (11760878_x_at) / RFU SPINT1 (11716480_a_at) / Fold change /veh SPINT1 (11716480_a_at) / RFU GAP43 (11754022_s_at) / Fold change /veh GAP43 (11754022_s_at) / RFU A4GNT (11735810_at) / Fold change /veh A4GNT (11735810_at) / RFU PRB3 (11715151_x_at) / Fold change /veh PRB3 (11715151_x_at) / RFU TUBB4B (11761932_at) / Fold change /veh TUBB4B (11761932_at) / RFU CAPN14 (11732068_a_at) / Fold change /veh CAPN14 (11732068_a_at) / RFU TMCC2 (11721928_a_at) / Fold change /veh TMCC2 (11721928_a_at) / RFU IRGQ (11745062_a_at) / Fold change /veh IRGQ (11745062_a_at) / RFU FAM174B (11720279_a_at) / Fold change /veh FAM174B (11720279_a_at) / RFU TMPRSS4 (11748680_a_at) / Fold change /veh TMPRSS4 (11748680_a_at) / RFU FAM212B (11763350_a_at) / Fold change /veh FAM212B (11763350_a_at) / RFU PLEKHG5 (11743358_a_at) / Fold change /veh PLEKHG5 (11743358_a_at) / RFU ZSCAN30 (11745921_a_at) / Fold change /veh ZSCAN30 (11745921_a_at) / RFU CMKLR1 (11741424_a_at) / Fold change /veh CMKLR1 (11741424_a_at) / RFU LOC101060620 /// MAPK8IP1 (11723275_at) / Fold change /veh LOC101060620 /// MAPK8IP1 (11723275_at) / RFU SPTSSB (11747773_x_at) / Fold change /veh SPTSSB (11747773_x_at) / RFU PRSS12 (11739890_at) / Fold change /veh PRSS12 (11739890_at) / RFU BIN1 (11741810_x_at) / Fold change /veh BIN1 (11741810_x_at) / RFU WNT11 (11732464_a_at) / Fold change /veh WNT11 (11732464_a_at) / RFU C10orf10 (11716521_a_at) / Fold change /veh C10orf10 (11716521_a_at) / RFU C5orf56 (11738089_at) / Fold change /veh C5orf56 (11738089_at) / RFU CYB561 (11721691_x_at) / Fold change /veh CYB561 (11721691_x_at) / RFU ANKRD19P (11752326_a_at) / Fold change /veh ANKRD19P (11752326_a_at) / RFU OR2T12 /// OR2T33 /// OR2T8 (11738714_s_at) / Fold change /veh OR2T12 /// OR2T33 /// OR2T8 (11738714_s_at) / RFU VCAN (11748164_a_at) / Fold change /veh VCAN (11748164_a_at) / RFU JSRP1 (11732532_at) / Fold change /veh JSRP1 (11732532_at) / RFU KRTAP10-11 (11738290_x_at) / Fold change /veh KRTAP10-11 (11738290_x_at) / RFU MYO3A (11730013_a_at) / Fold change /veh MYO3A (11730013_a_at) / RFU EBF3 (11725865_a_at) / Fold change /veh EBF3 (11725865_a_at) / RFU CAMK2N1 (11719241_x_at) / Fold change /veh CAMK2N1 (11719241_x_at) / RFU C5orf56 (11738088_a_at) / Fold change /veh C5orf56 (11738088_a_at) / RFU OLFML3 (11715873_a_at) / Fold change /veh OLFML3 (11715873_a_at) / RFU LOC100653217 /// NTM (11731650_a_at) / Fold change /veh LOC100653217 /// NTM (11731650_a_at) / RFU MAPK11 (11762145_a_at) / Fold change /veh MAPK11 (11762145_a_at) / RFU FIZ1 (11724087_x_at) / Fold change /veh FIZ1 (11724087_x_at) / RFU OASL (11726364_x_at) / Fold change /veh OASL (11726364_x_at) / RFU SOX15 (11748057_x_at) / Fold change /veh SOX15 (11748057_x_at) / RFU CD79A (11719716_a_at) / Fold change /veh CD79A (11719716_a_at) / RFU HIST1H1D (11736915_at) / Fold change /veh HIST1H1D (11736915_at) / RFU CASKIN2 (11723855_a_at) / Fold change /veh CASKIN2 (11723855_a_at) / RFU LOC730098 (11760151_x_at) / Fold change /veh LOC730098 (11760151_x_at) / RFU OR4N2 (11742367_at) / Fold change /veh OR4N2 (11742367_at) / RFU PRRT2 (11749266_a_at) / Fold change /veh PRRT2 (11749266_a_at) / RFU SNX32 (11753110_a_at) / Fold change /veh SNX32 (11753110_a_at) / RFU CDHR5 (11726645_a_at) / Fold change /veh CDHR5 (11726645_a_at) / RFU RCAN1 (11760418_a_at) / Fold change /veh RCAN1 (11760418_a_at) / RFU FAM167A (11723789_a_at) / Fold change /veh FAM167A (11723789_a_at) / RFU FAM26E (11764081_at) / Fold change /veh FAM26E (11764081_at) / RFU ISYNA1 (11749810_s_at) / Fold change /veh ISYNA1 (11749810_s_at) / RFU ACY1 (11761880_at) / Fold change /veh ACY1 (11761880_at) / RFU 11764098_at / Fold change /veh 11764098_at / RFU SAMD14 (11745864_x_at) / Fold change /veh SAMD14 (11745864_x_at) / RFU NPB (11741838_a_at) / Fold change /veh NPB (11741838_a_at) / RFU TMPRSS6 (11731388_a_at) / Fold change /veh TMPRSS6 (11731388_a_at) / RFU KRTAP10-2 (11738614_at) / Fold change /veh KRTAP10-2 (11738614_at) / RFU ARHGAP8 /// PRR5-ARHGAP8 (11727945_x_at) / Fold change /veh ARHGAP8 /// PRR5-ARHGAP8 (11727945_x_at) / RFU KRTAP5-7 /// NADSYN1 (11734609_at) / Fold change /veh KRTAP5-7 /// NADSYN1 (11734609_at) / RFU RASL12 (11751679_a_at) / Fold change /veh RASL12 (11751679_a_at) / RFU CDKN2B (11736163_a_at) / Fold change /veh CDKN2B (11736163_a_at) / RFU PRF1 (11729649_at) / Fold change /veh PRF1 (11729649_at) / RFU, ZNF638 /// ZNF638-IT1 / Fold change vs veh, ZNF638 /// ZNF638-IT1 / RFU, PANK3 / Fold change vs veh, PANK3 / RFU, SH3YL1 / Fold change vs veh, SH3YL1 / RFU, ZEB2 / Fold change vs veh, ZEB2 / RFU, NRIP1 / Fold change vs veh, NRIP1 / RFU, PTTG1IP / Fold change vs veh, PTTG1IP / RFU, CAPN2 / Fold change vs veh, CAPN2 / RFU, MED14 / Fold change vs veh, MED14 / RFU, SNORA58 / Fold change vs veh, SNORA58 / RFU, C1orf63 / Fold change vs veh, C1orf63 / RFU, LRRFIP1 / Fold change vs veh, LRRFIP1 / RFU, NDUFAF7 / Fold change vs veh, NDUFAF7 / RFU, SLC12A2 / Fold change vs veh, SLC12A2 / RFU, IBTK / Fold change vs veh, IBTK / RFU, ESF1 / Fold change vs veh, ESF1 / Fold change vs veh, TMEM50B / RFU, TAOK1 / Fold change vs veh, TAOK1 / RFU, ACBD3 / Fold change vs veh, ACBD3 / RFU, TMA16 / Fold change vs veh, TMA16 / RFU, RWDD3 / Fold change vs veh, RWDD3 / RFU, BCAT1 / Fold change vs veh, BCAT1 / RFU, EDEM3 / Fold change vs veh, EDEM3 / RFU, TMEM33 / Fold change vs veh, TMEM33 / RFU, WDR75 / Fold change vs veh, WDR75 / RFU, AHCTF1 / Fold change vs veh, AHCTF1 / RFU, TFRC / Fold change vs veh, TFRC / RFU, ZDHHC17 / Fold change vs veh, ZDHHC17 / RFU, NOM1 / Fold change vs veh, NOM1 / RFU, ARL8B / Fold change vs veh, ARL8B / RFU, ZBTB11 / Fold change vs veh, ZBTB11 / RFU, TAMM41 / Fold change vs veh, TAMM41 / RFU, KIAA1704 /// LOC100996395 / Fold change vs veh, KIAA1704 /// LOC100996395 / RFU, ING1 / Fold change vs veh, ING1 / RFU, TRMT61B / Fold change vs veh, TRMT61B / RFU, FUBP3 / Fold change vs veh, FUBP3 / RFU, TP53 / Fold change vs veh, TP53 / RFU, TNKS2 / Fold change vs veh, TNKS2 / RFU, ZFP14 / Fold change vs veh, ZFP14 / RFU, ACTR2 / Fold change vs veh, ACTR2 / RFU, PPP3R1 / Fold change vs veh, PPP3R1 / RFU, PIK3R1 / Fold change vs veh, PIK3R1 / RFU, HNRNPA1 / Fold change vs veh, HNRNPA1 / RFU, RNF170 / Fold change vs veh, RNF170 / RFU, ZNF28 / Fold change vs veh, ZNF28 / RFU, RNGTT / Fold change vs veh, RNGTT / RFU, OGT / Fold change vs veh, OGT / RFU, BRD1 / Fold change vs veh, BRD1 / RFU, MARS / Fold change vs veh, MARS / RFU, ZNF655 / Fold change vs veh, ZNF655 / RFU, FAHD1 / Fold change vs veh, FAHD1 / RFU, BDP1 / Fold change vs veh, BDP1 / RFU, LRRCC1 / Fold change vs veh, LRRCC1 / RFU, ARID1A / Fold change vs veh, ARID1A / RFU, ZNF146 / Fold change vs veh, ZNF146 / RFU, ZNF330 / Fold change vs veh, ZNF330 / RFU, GPN3 / Fold change vs veh, GPN3 / RFU, C9orf123 / Fold change vs veh, C9orf123 / RFU, N4BP2L2 / Fold change vs veh, N4BP2L2 / RFU, ARFIP1 / Fold change vs veh, ARFIP1 / RFU, FAM179B / Fold change vs veh, FAM179B / RFU, BCL10 / Fold change vs veh, BCL10 / RFU, UHRF1BP1L / Fold change vs veh, UHRF1BP1L / RFU, BET1 / Fold change vs veh, BET1 / RFU, CNOT2 / Fold change vs veh, CNOT2 / RFU, ZNF268 / Fold change vs veh, ZNF268 / Fold change vs veh, ZNF507 / RFU, DGCR2 / Fold change vs veh, DGCR2 / RFU, WDSUB1 / Fold change vs veh, WDSUB1 / Fold change vs veh, HSP90B1 /// MIR3652 / RFU, ADSS / Fold change vs veh, ADSS / RFU, GK / Fold change vs veh, GK / RFU, ZNF148 / Fold change vs veh, ZNF148 / RFU, TAF9 / Fold change vs veh, TAF9 / RFU, SLC1A5 / Fold change vs veh, SLC1A5 / RFU, SLMO2 / Fold change vs veh, SLMO2 / RFU, ABCC4 / Fold change vs veh, ABCC4 / RFU, LOC101060439 /// RAP1B / Fold change vs veh, LOC101060439 /// RAP1B / RFU, RFX7 / Fold change vs veh, RFX7 / RFU, GTPBP10 / Fold change vs veh, GTPBP10 / RFU, CNEP1R1 / Fold change vs veh, CNEP1R1 / RFU, BIVM-ERCC5 /// ERCC5 / Fold change vs veh, BIVM-ERCC5 /// ERCC5 / RFU, ILF3 / Fold change vs veh, ILF3 / RFU 11762660_at / Fold change /veh 11762660_at / RFU VCAN (11757783_s_at) / Fold change /veh VCAN (11757783_s_at) / RFU DDX43 (11728927_at) / Fold change /veh DDX43 (11728927_at) / RFU KRT8 (11758188_x_at) / Fold change /veh KRT8 (11758188_x_at) / RFU NKD1 (11759106_at) / Fold change /veh NKD1 (11759106_at) / RFU SRD5A1 (11742802_a_at) / Fold change /veh SRD5A1 (11742802_a_at) / RFU TPSAB1 /// TPSB2 (11721975_s_at) / Fold change /veh TPSAB1 /// TPSB2 (11721975_s_at) / RFU GSTM3 (11746129_a_at) / Fold change /veh GSTM3 (11746129_a_at) / RFU IL23R (11737362_x_at) / Fold change /veh IL23R (11737362_x_at) / RFU TMEM51 (11727254_a_at) / Fold change /veh TMEM51 (11727254_a_at) / RFU PIWIL2 (11732686_x_at) / Fold change /veh PIWIL2 (11732686_x_at) / RFU ORM1 (11744905_x_at) / Fold change /veh ORM1 (11744905_x_at) / RFU CCDC152 (11743942_at) / Fold change /veh CCDC152 (11743942_at) / RFU ECM1 (11717891_a_at) / Fold change /veh ECM1 (11717891_a_at) / RFU IL23R (11748794_a_at) / Fold change /veh IL23R (11748794_a_at) / RFU TNFAIP8L3 (11732012_x_at) / Fold change /veh TNFAIP8L3 (11732012_x_at) / RFU MBOAT4 (11741988_at) / Fold change /veh MBOAT4 (11741988_at) / RFU 11764193_at / Fold change /veh 11764193_at / RFU TMEM53 (11763286_at) / Fold change /veh TMEM53 (11763286_at) / RFU MAGEB2 (11727129_at) / Fold change /veh MAGEB2 (11727129_at) / RFU TMEM200A (11744735_a_at) / Fold change /veh TMEM200A (11744735_a_at) / RFU CCDC152 (11751479_a_at) / Fold change /veh CCDC152 (11751479_a_at) / RFU FAM211A (11726209_a_at) / Fold change /veh FAM211A (11726209_a_at) / RFU RGS16 (11746705_a_at) / Fold change /veh RGS16 (11746705_a_at) / RFU VCAN (11755009_s_at) / Fold change /veh VCAN (11755009_s_at) / RFU RHOB (11743442_s_at) / Fold change /veh RHOB (11743442_s_at) / RFU RGS16 (11720943_a_at) / Fold change /veh RGS16 (11720943_a_at) / RFU RGS16 (11720944_at) / Fold change /veh RGS16 (11720944_at) / RFU, VPS4B / Fold change vs veh, VPS4B / RFU, CREB1 / Fold change vs veh, CREB1 / RFU, DNAJC13 / Fold change vs veh, DNAJC13 / RFU, GNAQ / Fold change vs veh, GNAQ / RFU, CDK5R1 / Fold change vs veh, CDK5R1 / RFU, ZRANB3 / Fold change vs veh, ZRANB3 / RFU, CUL4A / Fold change vs veh, CUL4A / RFU, CCNY / Fold change vs veh, CCNY / RFU, UFL1 / Fold change vs veh, UFL1 / RFU, COG3 / Fold change vs veh, COG3 / RFU, DIAPH2 / Fold change vs veh, DIAPH2 / RFU, SKA2 / Fold change vs veh, SKA2 / RFU, AFF3 / Fold change vs veh, AFF3 / RFU, LMF1 / Fold change vs veh, LMF1 / RFU, IPO11 / Fold change vs veh, IPO11 / RFU, DFFB / Fold change vs veh, DFFB / RFU, FOXP1 / Fold change vs veh, FOXP1 / RFU, CARD8 / Fold change vs veh, CARD8 / RFU, STRN3 / Fold change vs veh, STRN3 / RFU, ADK / Fold change vs veh, ADK / RFU, RASSF2 / Fold change vs veh, RASSF2 / RFU, WIPF1 / Fold change vs veh, WIPF1 / RFU, LARP1B / Fold change vs veh, LARP1B / RFU, RASA1 / Fold change vs veh, RASA1 / RFU, RB1 / Fold change vs veh, RB1 / RFU, PPFIA1 / Fold change vs veh, PPFIA1 / RFU, MAT2A / Fold change vs veh, MAT2A / RFU, CCT5 / Fold change vs veh, CCT5 / RFU, WDR92 / Fold change vs veh, WDR92 / RFU, CUX1 / Fold change vs veh, CUX1 / RFU, TTC7A / Fold change vs veh, TTC7A / RFU, TMEM135 / Fold change vs veh, TMEM135 / RFU, DEPTOR / Fold change vs veh, DEPTOR / RFU, CPM / Fold change vs veh, CPM / RFU, DNAJB6 / Fold change vs veh, DNAJB6 / RFU, CACNA2D3 / Fold change vs veh, CACNA2D3 / RFU, DTX4 / Fold change vs veh, DTX4 / RFU, TFCP2 / Fold change vs veh, TFCP2 / RFU, GMCL1 /// GMCL1P1 / Fold change vs veh, GMCL1 /// GMCL1P1 / RFU, AEBP2 / Fold change vs veh, AEBP2 / RFU, SNHG1 /// SNORD22 /// SNORD25 /// SNORD26 /// SNORD27 /// SNORD28 /// SNORD29 /// SNORD31 / Fold change vs veh, SNHG1 /// SNORD22 /// SNORD25 /// SNORD26 /// SNORD27 /// SNORD28 /// SNORD29 /// SNORD31 / Fold change (Aza/veh), C12orf56 (ProbeSet 11735607_a_at) / Fold change (ACY-1035/veh), C12orf56 (ProbeSet 11735607_a_at) / Fold change (Aza/veh), FGFR1OP (ProbeSet 11751329_s_at) / Fold change (ACY-1035/veh), FGFR1OP (ProbeSet 11751329_s_at) / Fold change (Aza/veh), VPS36 (ProbeSet 11739960_a_at) / Fold change (ACY-1035/veh), VPS36 (ProbeSet 11739960_a_at) / RFU SYPL1 (11715823_x_at) / Fold change /veh SYPL1 (11715823_x_at) / RFU IGFBP7 (11715501_s_at) / Fold change /veh IGFBP7 (11715501_s_at) / RFU REEP3 (11722064_at) / Fold change /veh REEP3 (11722064_at) / RFU IGLL1 (11728026_x_at) / Fold change /veh IGLL1 (11728026_x_at): dose or concentration left out as unconfirmed
Conditions: MV-4-11 cells, 48 hours

With Nc1ncn([C@@H]2O[C@H](CO)[C@@H](O)[C@H]2O)c(=O)n1 [azacitidine] the “Fold change /veh GIMAP4 (11747438_a_at)” value was 1.07.
